Patent US20100120788A1, “IDENTIFICATION OF POLYNUCLEOTIDES FOR […] OF COMPOUNDS THAT […] WITH AND/OR MODULATE PROTEIN TYROSINE KINASES AND/OR PROTEIN TYROSINE KINASE […] IN PROSTATE CELLS” (Bristol-Myers Squibb Company, priority 2007, published 2010)

What was measured:
[1] = system: imatinib-resistant BCR-ABL mutants; details: number of mutants of those tested; cited from earlier work
[2] = system: secreted uPA protein in PC3 cells; assay: uPA protein ELISA assay of culture medium; format: cell-based, human; details: different doses, 24 h, per 50,000 viable cells
Description: FIG. 3. PLAU gene expression and regulation by dasatinib analyzed at mRNA and protein levels. (A) Differential baseline expression of PLAU gene between resistant (R, in black) and sensitive (S, in red) cell lines. The X-values are the expression level in log2-scale. The resistant cell line expressing high level of PLAU was WPMY1 and the sensitive cell line expressing low level of PLAU was LNCaP. (B) Down-regulation of PLAU mRNA level by dasatinib-treatment in 5 sensitive cell lines. The cells were treated with 100 nM dasatinib (+D) or DMSO (Ctrl) for 48 hours. The p value was 0.048 in paired t-test, indicating a significant reduction of PLAU mRNA following dasatinib treatment. (C) Correlation between dasatinib-induced PLAU mRNA down-regulation with the sensitivity of cell lines to dasatinib. […] The amount of uPA protein secreted into the culture medium by 50,000 viable cells was assessed by ELISA assay. […]
Cell were seeded in 24-well plates at density of 25,000 cells/well. […] Total number of cells were also quantitated using a cell counter, and the number of viable cells were assessed with Trypan Blue. The amount of uPA protein in the supernatant was determined using the uPA ELISA kit (America Diagnostica, Stamford, Conn.), and the concentrations of uPA secreted by 50,000 viable cells into the medium were calculated.

Structure (SMILES)	imatinib-resistant BCR-ABL mutants against which significantly active [1]	amount of uPA protein secreted into the growth medium [2]
Cc1cn(-c2cc(NC(=O)c3ccc(C)c(Nc4nccc(-c5cccnc5)n4)c3)cc(C(F)(F)F)c2)cn1 [AMN107]	32/33	
CC(=O)O[C@H]1C(=O)[C@@]2(C)[C@H]([C@H](OC(=O)c3ccccc3)[C@]3(O)C[C@H](OC(=O)[C@H](O)[C@@H](NC(=O)c4ccccc4)c4ccccc4)C(C)=C1C3(C)C)[C@]1(OC(C)=O)CO[C@@H]1C[C@@H]2O [TAXOL®]		did not see a dose-dependent reduction
